According to patent US20240269170A1, “Treatment of Inflammatory Conditions or Diseases” (Queen Mary University of London, priority 2021, published 2024):

System: K/B×N serum induced arthritis in mice
Assay: K/B×N serum transfer inflammatory arthritis, MCTR3 given immediately after disease onset
Type: in vivo, mouse
Experimental: FIG. 7: MCTR3 limits joint inflammation. Mice were administered K/B×N serum on days 0 and 2 and then treated with MCTR3 (100 ng/mouse) or Vehicle (PBS+0.1% EtOH) on days 3 and 5. Disease course was evaluated by assessing (A) clinical scores. (B-C) On day 7 joints were collected and disease severity was evaluated using (B) H&E Staining and (C) glycosaminoglycan content was assessed using Safranin-O staining, arrows denote Safranin-O staining in cartilage. Results for A are presented as mean±SEM. Statistical differences for A were evaluated using Two-Way ANOVA. n=4 mice per group. IFP=intrapatellar fat, M=meniscus, TB=Tibia, PF=Pannus formation, Red arrows denote leukocyte infiltration. (D-E) Lipid mediator profiles were determined using LC-MS/MS-based lipid mediator profiling and evaluated using PLS-DA. (D) scores plot with highlighted regions denoting the clusters representing cells from each group and (E) VIP scores for top 15 mediators. Each dot in the score plot represents a separate mouse.
For this purpose, we employed a serum transfer model of inflammatory arthritis, which relies on the activation of the innate immune system replicating the effector phase of rheumatoid arthritis (Korganow et al., 1999, Immunity 10, 451-461). […] We next evaluated whether MCTR3 administration also regulated the joint lipid mediator profile. Using partial least square discriminant analysis, which produces a regression model built using concentrations of lipid mediators differently expressed between the two groups, we found a shift in joint lipid mediator concentrations in mice treated with MCTR3. This shift was linked with a downregulation of pro-inflammatory and nociceptive eicosanoids including PGE2 and PGF2a and an upregulation of pro-resolving and anti-nociceptive mediators such as MaR1 and PDX (FIG. 7D,E).
All samples were extracted using solid-phase extraction columns as in (Gomez et al., 2020, Nat Commun 11, 5420). In brief, samples were placed in ice-cold methanol containing deuterated internal standards (d8-5S-HETE, d4-LTB4, d5-LXA4, d4-PGE2, d5-RvD2, d5-MaR1, d5-MaR2, d5-RvD3, d4-RvE1, d5-17R-RvD1, d5-LTC4, d5-LTD4 and d5-LTE4) representing each chromatographic region of identified LM. Following protein precipitation (−20° C. for a minimum of 45 min), samples were centrifuged and supernatants extracted using an ExtraHera System (Biotage) using solid-phase extraction with Isolute C18 500 mg columns (Biotage). Methyl formate and methanol fractions were collected, brought to dryness and resuspended in phase (methanol/water, 1:1, vol/vol) for injection on a Shimadzu LC-20AD HPLC and a Shimadzu SIL-20AC autoinjector, paired with a QTrap 5500 or QTrap 6500^+ (Sciex). In the analysis of mediators eluted in the methyl formate fraction, an Agilent Poroshell 120 EC-C18 column (100 mm×4.6 mm×2.7 μm) was kept at 50° C. and mediators eluted using a mobile phase consisting of methanol/water/acetic acid of 20:80:0.01 (vol/vol/vol) that was ramped to 50:50:0.01 (vol/vol/vol) over 0.5 min and then to 80:20:0.01 (vol/vol/vol) from 2 min to 11 min, maintained till 14.5 min and then rapidly ramped to 98:2:0.01 (vol/vol/vol) for the next 0.1 min. This was subsequently maintained at 98:2:0.01 (vol/vol/vol) for 5.4 min, and the flow rate was maintained at 0.5 ml/min. QTrap 5500 was operated in negative ionization mode using a multiple reaction monitoring method. […]

[1] = 100 ng/mouse on days 3 and 5, LC-MS/MS, PLS-DA
[2] = 100 ng/mouse on days 3 and 5, joints day 7

## CC/C=C\C/C=C\C[C@H](O)[C@@H](/C=C/C=C/C=C\C/C=C\CCC(=O)O)SC[C@H](N)C(=O)O [MCTR3, 13R-cysteinyl, 14S-hydroxy-4Z, 7Z, 9E, 11E, 13R, 14S, 16Z, 19Z-docosahexaenoic acid]
[1]
  joint pro-inflammatory and nociceptive eicosanoids including PGE2 and PGF2a: downregulation
  joint pro-resolving and anti-nociceptive mediators such as MaR1 and PDX: upregulation
[2]
  leukocyte infiltration (H&E): decrease
  safranin staining (glycosaminoglycan content in the cartilage): increased
100 ng/mouse on days 3 and 5, vs vehicle
  clinical scores: significant reduction
